This is an account of results in patent US5663172A, “Preventive agent for platelet aggregation” (Nippon Soda Co., Ltd., priority 1992, dated 1997).

Data set [1] deals with T1, Cyclic guanosine monophosphate inhibiting-type cyclic adenosine monophosphate phosphodiesterase (cAMP-PDE) (Canis lupus familiaris, UniProt A0A8I3NYE0).
T1 construct: derived from canine platelets was prepared according to the method of Thompson et. al; from tissue; host or cells: canine platelets (DEAE-cellulose fraction)
T1 sequence (A0A8I3NYE0 1-1135): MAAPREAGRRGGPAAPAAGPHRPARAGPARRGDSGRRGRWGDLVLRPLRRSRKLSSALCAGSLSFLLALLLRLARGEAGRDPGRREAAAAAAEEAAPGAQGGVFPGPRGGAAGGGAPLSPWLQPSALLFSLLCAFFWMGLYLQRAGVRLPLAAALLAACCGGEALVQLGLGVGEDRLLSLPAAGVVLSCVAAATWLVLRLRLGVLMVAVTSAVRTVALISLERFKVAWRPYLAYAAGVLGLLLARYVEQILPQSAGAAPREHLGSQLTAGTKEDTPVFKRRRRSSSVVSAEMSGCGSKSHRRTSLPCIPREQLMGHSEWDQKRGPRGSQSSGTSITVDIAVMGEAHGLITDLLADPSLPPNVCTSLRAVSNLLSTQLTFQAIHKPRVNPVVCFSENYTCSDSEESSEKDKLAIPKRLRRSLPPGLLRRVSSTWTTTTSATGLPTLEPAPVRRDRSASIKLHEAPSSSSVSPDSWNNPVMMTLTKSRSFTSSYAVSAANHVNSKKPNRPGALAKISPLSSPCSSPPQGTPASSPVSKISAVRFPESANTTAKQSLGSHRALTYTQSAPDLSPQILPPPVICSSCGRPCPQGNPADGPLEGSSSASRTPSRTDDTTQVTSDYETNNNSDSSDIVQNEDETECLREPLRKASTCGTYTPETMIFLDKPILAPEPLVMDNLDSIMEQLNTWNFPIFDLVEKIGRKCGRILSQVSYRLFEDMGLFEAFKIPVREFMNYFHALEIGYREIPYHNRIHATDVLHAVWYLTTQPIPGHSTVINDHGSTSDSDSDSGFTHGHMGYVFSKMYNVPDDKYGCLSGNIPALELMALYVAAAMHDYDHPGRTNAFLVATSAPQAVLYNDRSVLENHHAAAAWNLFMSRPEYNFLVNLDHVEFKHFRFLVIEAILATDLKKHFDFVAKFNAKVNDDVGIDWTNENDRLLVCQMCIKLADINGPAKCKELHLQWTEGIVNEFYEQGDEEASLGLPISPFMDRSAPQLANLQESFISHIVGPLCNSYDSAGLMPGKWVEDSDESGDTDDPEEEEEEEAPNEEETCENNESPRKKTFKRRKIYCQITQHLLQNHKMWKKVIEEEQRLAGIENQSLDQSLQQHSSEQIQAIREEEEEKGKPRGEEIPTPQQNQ
Put plainly: Inhibitory effect on phosphodiesterase (cGMP inhibiting-type cAMP-PDE from canine platelets). It is filed as biochemical. The note with it: for IC50: canine platelets, 1 μM [3H]-cAMP.

Data set [2] deals with Left Cardiac Ventricle (dp/dt max), heart rate, blood pressure. In words: Cardiotonic effect in anesthetized Beagle dogs (dp/dt max, heart rate, blood pressure). It is filed as in vivo. The note with it: for ED50: Canis lupus familiaris, cumulative 0.001 to 0.3 mg/0.1 ml/Kg, read-out: ED50 for dp/dt max in Left Cardiac Ventricle (dose attaining 50% increase). As to the method: Male and female Beagle dogs in a weight range of from 10 to 15 Kg were anesthetized to provide them for the test. The dogs were anesthetized by intravenous injection with sodium pentobarbital at a dose of […], and the anesthetized condition was maintained by subsequent intravenous injection with sodium pentobarbital at a dose of 4 mg/Kg/hr. A cannula for drip infusion either of physiological saline solution or anesthetic injection was inserted into a femoral vein, and a cannula for measuring arterial blood pressure was inserted into a femoral artery via a pressure transducer. Heart rate was recorded by conducting R-wave of the electrocardiogram (ECG) to a heart beat counter. Secondary induction from electrocardiogram was measured via a bioelectricity-adapted amplifier. Internal pressure of left cardiac ventricle was measured by inserting a catheter-type pressure transducer from a left carotid into left cardiac ventricle. Differential values by time of the internal pressure in left cardiac ventricle (dp/dt max) were measured by conducting the internal pressure in left cardiac ventricle to a derivative amplifier. The test compound was cummulatively administrated at a rate of from 0.001 to 0.3 mg/0.1 ml/Kg though a cannula inserted into a femoral vein. Based on a dose-response curve obtained, ED50, a dose attaining 50% increase of the dp/dt max in left cardiac ventricle, was determined.

The test system of the next data set is Mice. In words: Preventive effect on thrombus-causing death (collagen + epinephylline i.v. in mice). The note with it: for ED50: Mus musculus, po, 0.5 h, read-out: ED50 for preventing Thrombus-causing Death. It is filed as in vivo. As to the method: Preventive Effect on Thrombus-causing Death
Mice in a state without feeding for a night were orally administrated with a test compound, and then injected intravenously with collagen in an amount of 400 μg/Kg and epinephylline in an amount of 50 μg/Kg through their tail at a fixed speed in accordance with the method of DiMinno and Silver (DiMinno, G. and Silver, M. J., J. Pharmacol. Exp. Thor., 225, 57-60, 1983). After 30 min., the mice were checked to determine their survival rate and to calculate EC50, a dose attaining 50% prevention of the death of the mice. The collagen and epinephylline were used in a form of a mixed solution prepared with SKF buffer solution and saline, respectively. Test compounds were administrated to mice after preparing each suspensions of the compounds in 1% aqueous solution of gum arabic.

Data set [3] deals with platelet aggregation (rabbit platelet rich plasma). Put plainly: Preventive effect on platelet aggregation in vitro (aggregometer; rabbit platelet rich plasma; ADP or collagen induced). Format: cell-based, rabbits. As to conditions: for EC50: Oryctolagus cuniculus, Platelet, rabbit PRP. The method, then:
Preventive Effect on Platelet Aggregation The preventive effect on platelet aggregation of the compounds and the complexes of the present invention was evaluated in vitro based on the preventive effect on the platelet aggregation induced by adenosine diphosphate (ADP) and collagen, which is determined by using an aggregometer, Hematracer PAT-606 produced by Nicho Bioscience Co., Ltd. Blood collected from rabbits containing 0.38% citric acid was centrifuged at 1100 rpm for 15 min. to obtain platelet rich plasm (PRP). The PRP obtained was then centrifuged at 3500 rpm for 10 min., and the supernatant obtained was provided as platelet poor plasma (PPP). PRP was diluted with PPP to adjust the concentration of platelets in PRP to a range of from 2×10^8 /ml to 5×10^8 ml. .left brkt-top.Either ADP at the final concentration of 10 μM or collagen at the final concentration of 20 μg/ml, which was prepared with SKF buffer solution (Collagen reagent Horm, Hormon Chemie) was used for the induction of platelet aggregation. .right brkt-bot. Test compound was dissolved into dimethyl sulfoxide (DMSO), then 0.5 ml of PRP prepared as described above was added to 0.5 μl of the solution, then mixed for about 3 min. Then, 0.2 ml portion was taken out of the mixture, and either ADP solution or collagen solution in an amount of 22 μl was added thereto to proceed to the measurement of platelet aggregation for 10 min. by using an aggregometer. The preventive effect on platelet aggregation was determined in the prevention rate (%) in respect to the aggregation rate in the check plot. The rate of prevention onto platelet aggregation was calculated according to the following equation. Platelet Aggregation Prevention Rate (%)=(Maximum Aggregation Rate(%) of Platelet when only DMSO is added-Maximum Aggregation Rate(%) of Platelet when Test Compound and DMSO are added).div.Maximum Aggregation Rate(%) of Platelet when only DMSO is added Based on the dose-response curve obtained according to the equation described above, EC50, a dose attaining 50% prevention of platelet aggregation, was determined.

In data set [4] the test system is Left Cardiac Ventricle (dp/dt max), heart rate, blood pressure. In words: Cardiotonic effect in anesthetized Beagle dogs (dp/dt max, heart rate, blood pressure). Format: in vivo. The note with it: i.v. at 0.3 mg/kg (footnote *).
Setting [5] is: ADP at final concentration 10 μM, read-out: EC50 for Platelet Aggregation Prevention, ADP.
Setting [6] is: collagen at final concentration 20 μg/ml, read-out: EC50 for Platelet Aggregation Prevention, Collagen.
Where [7] appears, read: i.v., anesthetized Beagle dogs, dose not stated.

Where two headings read alike, the source gives them in different places.

Compound `O=C1CCc2cc(OCCCCc3nnnn3C3CCCCC3)ccc2N1` [Cilostazol, reference compound] yielded a concentration for half-maximal inhibition (IC50) in data set [1] of 0.6 µM. The ED50 was determined as 0.2 mg/kg in data set [2] (iv, anesthetized Beagle dogs) and 300 mg/kg with Mice. Moreover, the “% Change in Blood pressure” value in data set [2] (dog, in vivo, iv) was -2.1%. In addition, in data set [2] (dog, in vivo, iv), the “% Change in Heart Rate” value came out at 15%. The figures for the EC50 in data set [3] (setting [5]) and in data set [3] (setting [6]) were 10.2 µM and 4.3 µM, respectively.

Regarding `CCCC1=C(Nc2ccc(C3=NNC(=O)CC3)cc2)CCCC1=O` [Compound No. 1, 4,5-dihydro-6-[4-[(2-propyl-3-oxo-1-cyclohexenyl)amino]phenyl]-3(2H)-pyridazine], in data set [4], the “% Change in Blood pressure” value was -8.6%, the “% Change in Heart Rate” value worked out at 5.2% and the “% Change in dp/dt max in Left Cardiac Ventricle” value is reported as 32%. The compound also returned an IC50 in data set [1] of 0.43 µM. Moreover, the ED50 in data set [2] (iv, anesthetized Beagle dogs) was above 0.3 mg/kg. Besides, in the data set on Mice, the ED50 amounted to 5 mg/kg. Besides, in data set [3] (setting [5]), the EC50 is 29.8 µM. Moreover, in data set [3] (setting [6]), the EC50 came to 9.3 µM.

Consider `CCCC1=C(Nc2ccc(C3=NNC(=O)CC3C)cc2)CCCC1=O` (stereo not drawn) [Compound No. 2, 4,5-dihydro-5-methyl-6-[4-[(2-propyl-3-oxo-1-cyclohexenyl)amino]phenyl]-3(2H)-pyridazinone], for which 0.088 µM corresponded to half-maximal inhibition in data set [1] (IC50). In addition, the “Effect in Test Example 3 (phosphodiesterase) compared with compound No. 2” value in data set [1] (in words) was “as much as the effects given by the compound No. 2”. In addition, the ED50 in data set [2] (iv, anesthetized Beagle dogs) came to 0.052 mg/kg; in the data set with Mice it was 1.7 mg/kg. Besides, the “% Change in Blood pressure” value in data set [2] (setting [7]) is listed as -10.0%. For the same compound, in data set [2] (setting [7]), the “% Change in Heart Rate” value worked out at 9.8%. In data set [2] (in words), the “Effect in Test Example 4 (cardiotonic effect) compared with compound No. 2” value is given as “as much as the effects given by the compound No. 2”. Further, the “Effect in Test Example 2 (thrombus-causing death) compared with compound No. 2” value with Mice (in words) was “as much as the effects given by the compound No. 2”. Besides, the EC50 in data set [3] (setting [5]) turned out to be 4.5 µM; in data set [3] (setting [6]) it was 3.6 µM. Also, the “Effect in Test Example 1 (platelet aggregation) compared with compound No. 2” value in data set [3] (in words) was “as much as the effects given by the compound No. 2”.

With `CCCC1=C(Nc2ccc(C3=NNC(=O)CC3)cc2)CCC1=O` [compound 3], in data set [1], the IC50 was 0.37 µM. For the same compound, the ED50 worked out at 0.1 mg/kg in data set [2] (iv, anesthetized Beagle dogs) and 6.8 mg/kg in the data set on Mice. Besides, the “% Change in Blood pressure” value in data set [2] (setting [7]) is listed as -10.5%. Also, the “% Change in Heart Rate” value in data set [2] (setting [7]) came out at 7.5%. The EC50 in data set [3] (setting [5]) worked out at 22.8 µM; in data set [3] (setting [6]), 12.9 µM.
